Results reported in patent US8304422B2, “Compositions and methods for inhibition of the JAK pathway” (Rigel Pharmaceuticals, Inc., priority 2007, dated 2012).

The compounds below were run on BaF3 V617F cells; UKE-1 (assay: Proliferation Assay (Cell Titer-Glo; Example 7)). Settings: proliferation 72 hours, inhibit JAK2 activity, cell line (BaF3 V617F or UKE-1) not stated.
Type: cell-based
Description: BaF3 V617F cells are maintained and plated in RPMI with 10% FBS. Plating density for these cells is 1×10^5 cells/mL.
UKE-1 are maintained and plated in Iscove's DMEM containing 10% FBS, 10% equine serum, 1% penicillin/streptomycin and 1 uM hydrocortisone. Plating density for these cells is 0.4×10^6 cells/mL
The cells were resuspended in a corresponding medium at a required cell density (see above). 100μ of cell suspension was added to each well of a flat bottom 96 well white plate. The compound was serially diluted in DMSO from 5 mM in 3-fold dilutions, and then diluted 1:250 in the RPMI 1640 medium containing 5% FBS and pen/strep. 100 μL of resulting 2× compound solution was added per well in duplicate and the cells were allowed to proliferate for 72 hours at 37° C.
Proliferation was measured using Cell Titer-Glo. The substrate was thawed and allowed to come to room temperature. After removal of top 100 μL of medium from each well, 100 μL of the premixed Cell Titer-Glo reagent was added to each well. The plates were mixed on an orbital shaker for three minutes to induce lysis and incubated at ambient temperature for an additional five minutes to allow the signal to equilibrate. The Luminescence was read on the Wallac Plate Reader.
The results of the ability of the compounds of the invention to inhibit JAK2 activity, when tested in the above assay, are shown in the following Table XI wherein the level of activity (i.e., the IC50) for each compound is indicated in Table XI. The compound numbers in Table XI refers to the compounds disclosed herein as being prepared by the methods disclosed herein: […]

| Compound | IC50 [nM] |
| --- | --- |
| 5-Chloro-N4-[4-(N-cyclopropylsulfonylamino)methylphenyl]-N2-[4-(N-ethylpiperizin-4-yl)phenyl]-2,4-pyrimidinediamine [II-205] | 135 |
| Cc1cnc(Nc2c(C)cc(OC(C)C)cc2C)nc1Nc1ccc(CCNS(=O)(=O)C2CC2)cc1 [II-64] | 548 |
| 5-Chloro-N4-[3,4-dihydro-1,1-dioxide-2H-1,2-benzothiazin-7-yl]-N2-[5-methyl-4-(N-methylpiperizin-4-yl)pyridine-3-yl]-2,4-pyrimidinediamine [VII-4] | 558 |
| Cc1cnc(Nc2ccc(-c3ccccc3)cc2)nc1Nc1ccc(CCNS(=O)(=O)C2CC2)cc1 [II-75] | 10400 |
| CCNS(=O)(=O)NCc1ccc(Nc2nc(Nc3cc(C)c(OC)c(C)c3)ncc2C)cc1 [II-116, N2-(3,5-Dimethyl-4-methoxyphenyl)-N4-[(4-(ethylamino)sulfonylamino)methylphenyl]-5-methyl-2,4-pyrimidinediamine] | 73.7 |
| Cc1cnc(Nc2ccc(S(=O)(=O)C(F)(F)F)cc2)nc1Nc1ccc(CCNS(=O)(=O)C2CC2)cc1 [II-59] | 3140 |
| 5-Chloro-N4-[4-(N-cyclopropylsulfonylamino)methylphenyl]-N2-[3,4-dimethyl-4-(2-(4-morpholinyl)ethoxy)phenyl]-2,4-pyrimidinediamine [II-160] | 29.9 |
| CCc1cnc(Nc2cc(OC)c(OC)c(OC)c2)nc1Nc1ccc(CNS(=O)(=O)C2CC2)cc1 [II-85, N4-[4-(N-Cyclopropylsulfonylamino)methylphenyl]-5-ethyl-N2-(3-,4,5-trimethoxylphenyl)-2,4-pyrimidinediamine] | 2690 |
| Cc1cnc(Nc2cncc(C)c2N2CCN(C)CC2)nc1Nc1ccc2c(c1)S(=O)(=O)NCC2 [VII-7, 5-Methyl-N4-[3,4-dihydro-1,1-dioxide-2H-1,2-benzothiazin-7-yl]-N2-[5-methyl-4-(N-methylpiperizin-4-yl)pyridine-3-yl]-2,4-pyrimidinediamine] | 5390 |
| CCc1cnc(Nc2ccc(N3CCN(C)CC3)cc2)nc1Nc1ccc(CNS(=O)(=O)C2CC2)cc1 [II-86, N4-[4-(N-Cyclopropylsulfonylamino)methylphenyl]-5-ethyl-N2-[4-(4-methyl-1-piperazinyl)phenyl]-2,4-pyrimidinediamine] | 724 |
| CN1CCN(c2ccc(Nc3ncc(Cl)c(Nc4ccc(CNS(=O)(=O)N(C)C)cc4)n3)cc2)CC1 [II-96, 5-Chloro-N4-[(4-(dimethylamino)sulfonylamino)methylphenyl]-N2-[4-(4-methyl-1-piperazinyl)phenyl]-2,4-pyrimidinediamine] | 91 |
| Cc1cnc(Nc2ccc(N3CCN(C)CC3)cc2C(F)(F)F)nc1Nc1ccc(CCNS(=O)(=O)C2CC2)cc1 [II-70] | 1390 |
| 5-Chloro-N4-[3-(N-tert-butylsulfonyl)phenyl]-N2-[3,4-trimethyl-4-methoxyphenyl]-2,4-pyrimidinediamine [I-16] | 17700 |
| CN1CCN(c2ccc(Nc3ncc(C(F)(F)F)c(Nc4ccc(CNS(=O)(=O)C5CC5)cc4)n3)cc2)CC1 [II-127, N4-[4-(N-Cyclopropylsulfonylamino)methylphenyl]-N2-[4-(4-methyl-1-piperazinyl)phenyl]-5-trifluoromethyl-2,4-pyrimidinediamine] | 338 |
| COc1cc(Nc2ncc(Cl)c(Nc3cccc(S(=O)(=O)NC(C)(C)C)c3)n2)cc(OC)c1OC [I-15, 5-Chloro-N4-[3-(N-tert-butylsulfonyl)phenyl]-N2-[3,4,5-trimethoxyphenyl]-2,4-pyrimidinediamine] | 225 |
| CC(C)(C)Oc1ccc(Nc2ncc(Cl)c(Nc3ccc(CCNS(=O)(=O)C4CC4)cc3)n2)cc1 [II-47, 5-Chloro-N4[4-(N-cyclopropylsulfonylamino)ethylphenyl]-N2-[4-(2,6-dimethyl-ethoxy)phenyl]-2,4-pyrimidinediamine] | 487 |
| CCNS(=O)(=O)NCc1ccc(Nc2nc(Nc3ccc(N4CCC(F)(F)CC4)cc3)ncc2C)cc1 [II-123, N2-[4-(4,4-Difluoro-1-piperidinyl)phenyl]-N4-[(4-(ethylamino)sulfonylamino)methylphenyl]-5-methyl-2,4-pyrimidinediamine] | 373 |
| Cc1cnc(Nc2cc(C)c(OCCN3CCOCC3)c(C)c2)nc1Nc1cccc(S(=O)(=O)NC(C)(C)C)c1 [I-20] | 189 |
| COc1c(C)cc(Nc2ncc(Cl)c(Nc3ccc(CNS(=O)(=O)N(C)C)cc3)n2)cc1Cl [II-93, 5-Chloro-N2-(3-chloro-4-methoxy-5-methylphenyl)-N4-[(4-(dimethylamino)sulfonylamino)methylphenyl]-2,4-pyrimidinediamine] | 350 |

More lines, now with the values ahead:

| IC50 [nM] | Compound |
| --- | --- |
| 205 | CN1CCN(c2ccc(Nc3ncc(Cl)c(Nc4ccc(CNS(=O)(=O)NC5CC5)cc4)n3)cc2)CC1 [II-167, 5-Chloro-N4-[4-((N-cyclopropylamino)sulfonylamino)methylphenyl]-N2-[4-(4-methyl-1-piperazinyl)phenyl]-2,4-pyrimidinediamine] |
| 1120 | Cc1cnc(Nc2ccc(C3=NCCN3)cc2)nc1Nc1ccc2c(c1)C(NS(=O)(=O)C1CC1)CC2 (racemic) [V-6, (+/−)-N4-[1-(Cyclopropylsulfonylamino)indan-6-yl]-N2-[4-(4,5-dihydro-1H-imidazol-2-yl)phenyl]-5-methyl-2,4-pyrimidinediamine] |
| 134 | COc1c(C)cc(Nc2ncc(C)c(Nc3ccc(CNS(=O)(=O)NC4CC4)cc3)n2)cc1C [II-162, N4-[4-((N-Cyclopropylamino)sulfonylamino)methylphenyl]-N2-(3,5-dimethyl-4-methoxyphenyl)-5-methyl-2,4-pyrimidinediamine] |
| 2340 | Cc1cnc(Nc2ccc(N3CCN(C)CC3)nc2)nc1Nc1ccc(CNS(=O)(=O)NC2CC2)cc1 [II-173, N4-[4-((N-Cyclopropylamino)sulfonylamino)methylphenyl]-5-methyl-N2-[6-(4-methyl-1-piperazinyl)-3-pyridinyl]-2,4-pyrimidinediamine] |
| 121 | Cc1cc(Nc2ncc(Cl)c(Nc3ccc(CNS(=O)(=O)C4CC4)cc3)n2)cc(C)c1OC(C)C [II-220, 5-Chloro-N4-[4-(N-cyclopropylsulfonylamino)methylphenyl]-N2-[3,5-dimethyl-4-(2-propoxy)phenyl]-2,4-pyrimidinediamine] |
| 39.4 | CCOc1c(C)cc(Nc2ncc(Cl)c(Nc3ccc(CNS(=O)(=O)C4CC4)cc3)n2)cc1C [II-211, 5-Chloro-N4-[4-(N-cyclopropylsulfonylamino)methylphenyl]-N2-[3,5-dimethyl-4-ethoxyphenyl]-2,4-pyrimidinediamine] |
| 317 | CCOc1cc(Nc2ncc(C)c(Nc3ccc(CNS(=O)(=O)C4CC4)cc3)n2)cc(OC)c1OC [II-209, 5-Methyl-N4-[4-(N-cyclopropylsulfonylamino)methylphenyl]-N2-[3,4-dimethoxy-5-ethoxyphenyl]-2,4-pyrimidinediamine] |
| 2690 | Cc1cnc(Nc2ccc(N3CCN(C)CC3)cc2)nc1Nc1ccc2c(c1)[C@H](NS(C)(=O)=O)CC2 [V-14, (1R)-5-Methyl-N2-[4-(4-methyl-1-piperazinyl)phenyl]-N4-[1-(methylsulfonyl)aminoindan-6-yl]-2,4-pyrimidinediamine] |
| 701 | CN1CCC(c2ccc(Nc3ncc(Cl)c(Nc4cccc(CNS(=O)(=O)C5CC5)c4)n3)cc2)CC1 [II-190, 5-Chloro-N4-[3-(N-cyclopropylsulfonylaminomethyl)phenyl]-N2-[4-(N-methylpiperidin-4-yl)phenyl]-2,4-pyrimidinediamine] |
| 733 | O=S(=O)(NCc1ccc(Nc2nc(Nc3ccc(CN4CCOCC4)cc3)ncc2Cl)cc1)C1CC1 [II-223, 5-Chloro-N4-[4-(N-cyclopropylsulfonylamino)methylphenyl]-N2-[4-(1-morpholinomethyl)phenyl]-2,4-pyrimidinediamine] |
| 92 | COc1cc(Nc2ncc(C)c(Nc3ccc(CNS(=O)(=O)C4CC4)cc3)n2)cc(C)c1OC [II-197, 5-Methyl-N4-[4-(N-cyclopropylsulfonylamino)methylphenyl]-N2-[3,4-dimethoxy-5-methylphenyl]-2,4-pyrimidinediamine] |
| 247 | COc1cc(Nc2ncc(C)c(Nc3ccc(CNS(=O)(=O)NC4CC4)cc3)n2)cc(C)c1OC [II-166, N4-[4-((N-Cyclopropylamino)sulfonylamino)methylphenyl]-N2-(3,4-dimethoxy-5-methylphenyl)-5-methyl-2,4-pyrimidinediamine] |
| 2160 | Cc1cnc(Nc2ccc(C3CCN(C)CC3)cc2)nc1Nc1ccc2c(c1)[C@H](NS(C)(=O)=O)CC2 [V-11, (1R)-5-Methyl-N2-[4-(1-methyl-4-piperidinyl)pheny]-N4-[1-(methylsulfonyl)aminoindan-6-yl]-2,4-pyrimidinediamine] |
| 378 | COc1c(C)cc(Nc2ncc(Cl)c(Nc3cccc(CNS(=O)(=O)C4CC4)c3)n2)cc1C [II-192, 5-Chloro-N4-[3-(N-cyclopropylsulfonylamino)methylphenyl]-N2-[3,5-dimethyl-4-methoxyphenyl]-2,4-pyrimidinediamine] |
